SMILES strings stand for the structures.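 These data come from cells grown in 96-well plates and exposed to compound for 48 hours at five concentrations. GI50 is the concentration that inhibits growth by half. TGI marks complete inhibition of growth.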

This is an account of results in PubChem BioAssay (NCI).

Among the test systems are K-562 leukemia; HT29 colon; A549 NSCLC; UACC-257 melanoma; OVCAR-4 ovarian; SNB-19 CNS; HS 578T breast; MDA-MB-231 breast; HCT-116 colon; NCI-H522 lung.
What all share (assay): NCI anticancer screen, dose series, 48 h

Take `COc1ccc(-c2cc(-c3cccn3C)c(C#N)c(N)n2)cc1OC`: the GI50 in the assay on K-562 leukemia is 55.6 µM; in the assay with HT29 colon it was above 100 µM; with A549 NSCLC, above 100 µM; with UACC-257 melanoma, above 100 µM; with OVCAR-4 ovarian, 40.7 µM; with SNB-19 CNS, above 100 µM. Moreover, the GI50 with HS 578T breast was above 100 µM; with MDA-MB-231 breast, 38.3 µM; with HCT-116 colon, 91.1 µM; in the assay on NCI-H522 lung, 40.4 µM. The TGI with K-562 leukemia, in the assay on HT29 colon, in the assay on A549 NSCLC, with UACC-257 melanoma, in the assay on OVCAR-4 ovarian and in the assay with SNB-19 CNS was above 100 µM each time. Moreover, the TGI in the assay on HS 578T breast, in the assay on MDA-MB-231 breast, in the assay on HCT-116 colon and with NCI-H522 lung was above 100 µM in each case.

In the case of `CCOC(=O)N1CCN(C(=O)c2ccc(C(F)(F)F)nc2Nc2cc(Cl)ccc2C)CC1`, the GI50 is 6.31 µM with K-562 leukemia; 13.2 µM in the assay with HT29 colon; 14.8 µM in the assay with A549 NSCLC; 27.2 µM in the assay with UACC-257 melanoma; 11.8 µM with OVCAR-4 ovarian; above 100 µM in the assay with SNB-19 CNS. Besides, the GI50 in the assay with HS 578T breast was 23.9 µM; in the assay on MDA-MB-231 breast, 5.22 µM; with HCT-116 colon, 12.3 µM; in the assay on NCI-H522 lung, 4.43 µM. The TGI with K-562 leukemia was above 100 µM; with HT29 colon, 34.8 µM; in the assay on A549 NSCLC, above 100 µM; with UACC-257 melanoma it was above 100 µM; in the assay on OVCAR-4 ovarian, 55.1 µM; in the assay on SNB-19 CNS, above 100 µM. Moreover, the TGI in the assay on HS 578T breast was determined as 91.2 µM; in the assay with MDA-MB-231 breast it was 21.9 µM; in the assay with HCT-116 colon it was 30.1 µM; in the assay with NCI-H522 lung, 27.4 µM.

For `COC(=O)[C@@H](NC(=O)[C@@H](OC)[C@@H]1Cc2cc3cc(OC4CC(OC5CC(O)C(O)C(C)O5)C(O)C(C)O4)c(C)c(O)c3c(O)c2C(=O)[C@H]1OC1CC(OC2CC(OC3CC(C)(O)C(O)C(C)O3)C(O)C(C)O2)C(O)C(C)O1)C(C)C` (stereo not given in full), the GI50 was 0.139 µM with K-562 leukemia; 0.129 µM in the assay on HT29 colon; 0.141 µM with A549 NSCLC; 0.128 µM in the assay on UACC-257 melanoma; 0.166 µM in the assay on OVCAR-4 ovarian; 0.157 µM in the assay with SNB-19 CNS. The GI50 was 0.114 µM in the assay on HS 578T breast, 0.192 µM in the assay with MDA-MB-231 breast, 0.0934 µM in the assay on HCT-116 colon and 0.112 µM in the assay on NCI-H522 lung. For the same compound, the TGI with K-562 leukemia was above 32.5 µM; in the assay on HT29 colon, above 32.5 µM; with A549 NSCLC it was above 32.5 µM; with UACC-257 melanoma, 8.91 µM; in the assay on OVCAR-4 ovarian, 14 µM; in the assay on SNB-19 CNS it was above 32.5 µM. The TGI was 1.39 µM in the assay on HS 578T breast, 19.9 µM in the assay with MDA-MB-231 breast, above 32.5 µM in the assay on HCT-116 colon and 2.02 µM with NCI-H522 lung.

On to `O=C(CN(C1CCCCC1)C1CCCCC1)Nc1ccc(S(=O)(=O)c2ccc(NC(=O)CN(C3CCCCC3)C3CCCCC3)cc2)cc1`, for which the GI50 with K-562 leukemia is 0.277 µM; in the assay with HT29 colon, 0.39 µM; in the assay with A549 NSCLC it was 1.33 µM; in the assay with UACC-257 melanoma, 1.37 µM; in the assay on OVCAR-4 ovarian, 0.942 µM; with SNB-19 CNS, 0.656 µM. Further, the GI50 is 1.03 µM in the assay on HS 578T breast, 0.432 µM in the assay with MDA-MB-231 breast, 0.158 µM in the assay on HCT-116 colon and 0.394 µM with NCI-H522 lung. Moreover, the TGI amounted to 1.38 µM with K-562 leukemia; 1.44 µM with HT29 colon; 3.26 µM in the assay on A549 NSCLC; 3.66 µM with UACC-257 melanoma; 2.58 µM in the assay with OVCAR-4 ovarian; 2.18 µM with SNB-19 CNS. The TGI in the assay on HS 578T breast amounted to 6.9 µM; with MDA-MB-231 breast it was 1.63 µM; in the assay on HCT-116 colon, 0.396 µM; in the assay on NCI-H522 lung it was 1.24 µM.

In the case of `CCN(CC)CCNCC(=O)Oc1ccc(/C=C/C(=O)CC(=O)/C=C/c2ccc(OC(=O)CNCCN(CC)CC)c(OC)c2)cc1OC`, the GI50 with K-562 leukemia is 28.7 µM; with HT29 colon, 2.36 µM; in the assay with A549 NSCLC, 6.73 µM; in the assay on UACC-257 melanoma, 3.58 µM; in the assay on OVCAR-4 ovarian, 8.67 µM; with SNB-19 CNS, 4.94 µM. The GI50 is 3.59 µM with HS 578T breast, 4.94 µM with MDA-MB-231 breast, 2.81 µM in the assay with HCT-116 colon and 3.29 µM in the assay with NCI-H522 lung. The TGI is above 100 µM with K-562 leukemia; 6.02 µM in the assay with HT29 colon; 39.8 µM in the assay with A549 NSCLC; 16.9 µM with UACC-257 melanoma; above 100 µM in the assay on OVCAR-4 ovarian; 20.2 µM in the assay on SNB-19 CNS. The TGI turned out to be 26.4 µM with HS 578T breast, 29.3 µM in the assay on MDA-MB-231 breast, 12.3 µM in the assay on HCT-116 colon and 11.6 µM in the assay with NCI-H522 lung.

With `Nc1ccncc1/C=C1/C(=O)Nc2ccccc21`, the GI50 was 33.6 µM with K-562 leukemia; 27.8 µM with HT29 colon; 56.9 µM in the assay with A549 NSCLC; above 100 µM in the assay with UACC-257 melanoma; 33.4 µM in the assay on OVCAR-4 ovarian; 36.8 µM in the assay on SNB-19 CNS. In addition, the GI50 in the assay on HS 578T breast was 41.2 µM; in the assay with MDA-MB-231 breast it was 50.1 µM; with HCT-116 colon, 43.9 µM; with NCI-H522 lung, 24 µM. Also, the TGI with K-562 leukemia, with HT29 colon, in the assay with A549 NSCLC, with UACC-257 melanoma, with OVCAR-4 ovarian and in the assay on SNB-19 CNS was above 100 µM each time. The TGI with HS 578T breast was above 100 µM; in the assay on MDA-MB-231 breast it was above 100 µM; in the assay with HCT-116 colon, above 100 µM; in the assay with NCI-H522 lung it was 71.6 µM.

As for `CN(C)Cc1c[nH]c2c1C(=O)c1c(c(O)c3ccccc3c1O)C2=O`, the GI50 is 2.24 µM in the assay with K-562 leukemia; 16.7 µM with HT29 colon; 7.59 µM in the assay on A549 NSCLC; 19.7 µM with UACC-257 melanoma; 20.1 µM with OVCAR-4 ovarian; 8.94 µM in the assay with SNB-19 CNS. For the same compound, the GI50 with HS 578T breast was 10.9 µM; in the assay with MDA-MB-231 breast, 11.6 µM; with HCT-116 colon it was 8.17 µM; in the assay with NCI-H522 lung, 12.6 µM. Moreover, the TGI was above 100 µM with K-562 leukemia; above 100 µM in the assay with HT29 colon; 20.6 µM in the assay with A549 NSCLC; 35.4 µM in the assay on UACC-257 melanoma; 42.6 µM in the assay on OVCAR-4 ovarian; 43.4 µM in the assay on SNB-19 CNS. Further, the TGI in the assay with HS 578T breast stood at 26.7 µM; in the assay with MDA-MB-231 breast, 25 µM; with HCT-116 colon, 34.8 µM; in the assay with NCI-H522 lung, 35.4 µM.
